Counter-ions that a name gives are not always drawn. Like-named read-outs stand apart in the source and are kept apart here.
Key:
[1] = target: SARS-CoV-2 Mpro (Severe acute respiratory syndrome coronavirus 2, UniProt P0DTD1); assay type: biochemical; details: 10 μM; 1 mM DTT
[2] = target: SARS-CoV-2 PLpro-NAB (Severe acute respiratory syndrome coronavirus 2, UniProt P0DTD1); assay: biochemical; details: for Inhibition in L-cysteine buffer versus DTT buffer (dose-response): 1 mM L-cysteine vs 1 mM DTT; for Inhibitory activity on retest in 1 mM L-cysteine: 50% inhibition at 20 μM
[3] = target: SARS-CoV-2 PLpro (Severe acute respiratory syndrome coronavirus 2, UniProt P0DTD1); assay type: biochemical; details: dose-response, ISG15 substrate
[4] = read-out: HC PLpro-NAB SARS-CoV-2 inhibition [%] 20 µM triplicates DTT BUFFER
[5] = read-out: HP PLpro-NAB SARS-CoV-2 inhibition [%] 20 µM triplicates L-CYS BUFFER
[6] = Table S1, 20 µM, DTT buffer, average (SD)
[7] = Table S1, 20 µM, L-cysteine buffer, average (SD)
[8] = Table S1, DTT buffer, read-out: HP PLpro-NAB SARS-CoV-2 IC50 [µM] triplicates DTT BUFFER
[9] = Table S1, L-cysteine buffer, read-out: HP PLpro-NAB SARS-CoV-2 IC50 [µM] duplicates L-CYS BUFFER

NC(Cc1cc(O)c(O)cc1O)C(=O)O (racemic) [6-Hydroxy-DL-DOPA]
Interference inhibition [%] 20 µM based on product interference DTT BUFFER (Table S1, 20 µM, DTT buffer): 14.95%

Cc1nc2c(=O)n(C)c(=O)nc-2n(C)n1 [3-Methyl Toxoflavin]
Interference inhibition [%] 20 µM based on product interference DTT BUFFER (Table S1, 20 µM, DTT buffer): 10.44%

O=C1C(=O)c2ccccc2-c2ccccc21 [9,10-Phenanthrenequinone]
Interference inhibition [%] 20 µM based on product interference DTT BUFFER (Table S1, 20 µM, DTT buffer): -2.46%

C[n+]1c2cc(N)ccc2cc2ccc(N)cc21.[Cl-] [Acriflavinium Hydrochloride]
Interference inhibition [%] 20 µM based on product interference DTT BUFFER (Table S1, 20 µM, DTT buffer): -17.48%

CC1(C)CCC2=C(O1)C(=O)c1ccccc1C2=O [Alpha Lapachone]
Interference inhibition [%] 20 µM based on product interference DTT BUFFER (Table S1, 20 µM, DTT buffer): -0.29%

CC1(C)C(=O)N=C2C1=C(O)C(=O)c1ccccc12 [BVT-948]
Interference inhibition [%] 20 µM based on product interference DTT BUFFER (Table S1, 20 µM, DTT buffer): -137.72%

Cn1cccc1/C=C1\C(=O)NC(=O)c2ccccc21 [BYK-204165]
Interference inhibition [%] 20 µM based on product interference DTT BUFFER (Table S1, 20 µM, DTT buffer): -5.54%

CC1(C)CCC2=C(O1)c1ccccc1C(=O)C2=O [Beta-Lapachone]
Interference inhibition [%] 20 µM based on product interference DTT BUFFER (Table S1, 20 µM, DTT buffer): 13.40%

C[C@H]1COC2=C1C(=O)C(=O)c1c2ccc2c1CCCC2(C)C [Cryptotanshinone]
Interference inhibition [%] 20 µM based on product interference DTT BUFFER (Table S1, 20 µM, DTT buffer): 3.37%

O=c1cc(-c2cc(O)c(O)c(O)c2)oc2cc(O)c(O)c(O)c12 [DOM_SIM_710, 3′,4’,5′,5,6,7-hexahydroxyflavone]
Interference inhibition [%] 20 µM based on product interference DTT BUFFER (Table S1, 20 µM, DTT buffer): 10.43%
Preference PLpro over Mpro [1]: preferential inhibition of PLpro over Mpro
Inhibition in L-cysteine buffer versus DTT buffer (dose-response) [2]: increased inhibition
Inhibitory activity on retest in 1 mM L-cysteine [2]: retained their inhibitory activity
inhibition at 20 µM ([2]; hit confirmation, 20 μM, 1 mM DTT buffer, average (SD), 20 μM PR619 = 100%, DMSO = 0%, read-out: HC PLpro-NAB inhibition [%] 20 μM triplicates 1 mM DTT buffer): 65%
inhibition at 20 µM ([2]; hit profiling, 20 μM, 1 mM L-cys buffer, average (SD), 20 μM PR619 = 100%, read-out: HP PLpro-NAB inhibition [%] 20 μM triplicates 1 mM L-cys buffer): 155%
IC50 ([2]; hit profiling, 1 mM DTT buffer): > 20 µM
Potency against PLpro compared with PLpro-NAB [3]: higher potency against PLpro compared with PLpro-NAB

CC(C)Nc1cccnc1N1CCN(C(=O)c2cc3cc(NS(C)(=O)=O)ccc3[nH]2)CC1 [Delavirdine (mesylate), Delavirdine]
Interference inhibition [%] 20 µM based on product interference DTT BUFFER: -20.91%
inhibition at 20 µM [2, 4]: 52.2%
inhibition at 20 µM [2, 5]: -69.3%

Cc1cccc2c3c(ccc12)C1=C(C(=O)C3=O)[C@@H](C)CO1 [Dihydrotanshinone I]
Interference inhibition [%] 20 µM based on product interference DTT BUFFER (Table S1, 20 µM, DTT buffer): -55.01%

Cc1cc(-c2ccc(/N=N/c3ccc4c(S(=O)(=O)O)cc(S(=O)(=O)O)c(N)c4c3O)c(C)c2)ccc1/N=N/c1ccc2c(S(=O)(=O)O)cc(S(=O)(=O)O)c(N)c2c1O [Evans Blue]
Interference inhibition [%] 20 µM based on product interference DTT BUFFER (Table S1, 20 µM, DTT buffer): 6.47%

Oc1c(Cl)cc(Cl)c(Cl)c1Cc1c(O)c(Cl)cc(Cl)c1Cl [Hexachlorophene]
Interference inhibition [%] 20 µM based on product interference DTT BUFFER (Table S1, 20 µM, DTT buffer): 15.14%

CC[n+]1c(-c2ccccc2)c2cc(N)ccc2c2ccc(N)cc21 [Homidium Bromide]
Interference inhibition [%] 20 µM based on product interference DTT BUFFER (Table S1, 20 µM, DTT buffer): 1.40%

O=C1C=CC(=O)c2c(O)cccc21 [Juglone]
Interference inhibition [%] 20 µM based on product interference DTT BUFFER (Table S1, 20 µM, DTT buffer): 12.84%

CCOC(=O)C1=C(C)N=c2sc(=Cc3ccc(OCC(=O)O)cc3)c(=O)n2C1c1ccc(SC)cc1 (centres unmarked) [ML120]
Interference inhibition [%] 20 µM based on product interference DTT BUFFER (Table S1, 20 µM, DTT buffer): 3.32%

COc1cccc2c(NCc3ccccc3)nc(-n3c(N)nc4ccccc43)nc12 [ML240]
Interference inhibition [%] 20 µM based on product interference DTT BUFFER (Table S1, 20 µM, DTT buffer): 16.72%

CC1=CC(=O)c2ccccc2C1=O [Menadione]
Interference inhibition [%] 20 µM based on product interference DTT BUFFER: -9.41%
inhibition at 20 µM [2, 4]: 115%
inhibition at 20 µM [2, 5]: -45.7%

O=C1C(Cl)=C(NCCN2CCOCC2)C(=O)c2ncccc21 [NSC-663284 (FhG)]
Interference inhibition [%] 20 µM based on product interference DTT BUFFER (Table S1, 20 µM, DTT buffer): -0.99%
Interference inhibition [%] 20 µM based on product interference DTT BUFFER (Table S1, 20 µM, DTT buffer, listed as NSC 663284 (EOS)): 14.95%
HC PLpro-NAB SARS-CoV-2 inhibition [%] 20 µM triplicates DTT BUFFER [2, 6]: 150.90 (0.34) %
HC PLpro-NAB SARS-CoV-2 inhibition [%] 20 µM triplicates DTT BUFFER ([2]; Table S1, 20 µM, DTT buffer, average (SD), listed as NSC 663284 (EOS)): 168.59 (3.49) %
HP PLpro-NAB SARS-CoV-2 inhibition [%] 20 µM triplicates L-CYS BUFFER [2, 7]: 7.56 (11.27) %
HP PLpro-NAB SARS-CoV-2 inhibition [%] 20 µM triplicates L-CYS BUFFER ([2]; Table S1, 20 µM, L-cysteine buffer, average (SD), listed as NSC 663284 (EOS)): -38.39 (8.32) %
IC50 ([2]; Table S1, DTT buffer, listed as NSC 663284 (EOS), read-out: HP PLpro-NAB SARS-CoV-2 IC50 [µM] triplicates DTT BUFFER): 2.15 µM
IC50 [2, 8]: 0.22 µM
IC50 [2, 9]: > 20 µM

Nc1ccc(O)c2ncccc12 [PD119507]
Interference inhibition [%] 20 µM based on product interference DTT BUFFER (Table S1, 20 µM, DTT buffer): 3.43%

N#CSc1cc(SC#N)c(N)nc1N [PR-619]
Interference inhibition [%] 20 µM based on product interference DTT BUFFER (Table S1, 20 µM, DTT buffer): -14.28%
Inhibition of Mpro [1]: inhibition of both proteases from SARS-CoV-2

Cc1cc(-c2ccc(/C=C3/SC(=Nc4ccc(Cl)c(C(=O)O)c4)NC3=O)o2)c([N+](=O)[O-])cc1C [PT 1]
Interference inhibition [%] 20 µM based on product interference DTT BUFFER (Table S1, 20 µM, DTT buffer): 9.93%

CC[N+](C)(CC)CCC[n+]1c(-c2ccccc2)c2cc(N)ccc2c2ccc(N)cc21.[I-].[I-] [Propidium-Iodide]
Interference inhibition [%] 20 µM based on product interference DTT BUFFER (Table S1, 20 µM, DTT buffer): 0.27%

O=c1ccc2[n+]([O-])c3ccc(O)cc3oc-2c1 [Resazurin (sodium salt), Resazurin]
Interference inhibition [%] 20 µM based on product interference DTT BUFFER (Table S1, 20 µM, DTT buffer): 11.91%
inhibition at 20 µM [2, 4]: 72.9%
inhibition at 20 µM [2, 5]: -36.5%

O=C(O)c1c(Cl)c(Cl)c(Cl)c(Cl)c1-c1c2cc(I)c(=O)c(I)c-2oc2c(I)c(O)c(I)cc12 [Rose Bengal Sodium]
Interference inhibition [%] 20 µM based on product interference DTT BUFFER (Table S1, 20 µM, DTT buffer): 12.07%
inhibition at 20 µM ([2]; Table S1, 20 µM, DTT buffer, average (SD), read-out: HC PLpro-NAB SARS-CoV-2 inhibition [%] 20 µM triplicates DTT BUFFER): 107%
inhibition at 20 µM ([2]; Table S1, 20 µM, L-cysteine buffer, average (SD), read-out: HP PLpro-NAB SARS-CoV-2 inhibition [%] 20 µM triplicates L-CYS BUFFER): -32.4%
IC50 [2, 8]: > 20 µM
IC50 [2, 9]: > 20 µM

O=C(Nc1ccccc1-c1cn2c(CN3CCNCC3)csc2n1)c1cnc2ccccc2n1 [SRT 1720]
Interference inhibition [%] 20 µM based on product interference DTT BUFFER (Table S1, 20 µM, DTT buffer): 22.23%

Cc1c(S(=O)(=O)O)oc2c1C(=O)C(=O)c1c-2ccc2c1CCCC2(C)C [Sodium-Tanshinone-ii-A-Sulfonate]
Interference inhibition [%] 20 µM based on product interference DTT BUFFER (Table S1, 20 µM, DTT buffer): -7.60%
inhibition at 20 µM [2, 5]: -51.9%

CN(C)CCNc1nc2cc(O)ccc2c2c1C(=O)c1ccccc1-2.Cl.Cl [TAS-103 (dihydrochloride)]
Interference inhibition [%] 20 µM based on product interference DTT BUFFER (Table S1, 20 µM, DTT buffer): 1.87%

COCCn1c2c([n+](Cc3cnccn3)c1C)C(=O)c1ccccc1C2=O [YM-155]
Interference inhibition [%] 20 µM based on product interference DTT BUFFER (Table S1, 20 µM, DTT buffer): -0.69%

O=c1c(O)cccc2cc(O)c(O)c(O)c12 [purpurogallin]
Interference inhibition [%] 20 µM based on product interference DTT BUFFER (Table S1, 20 µM, DTT buffer): 12.84%
Preference PLpro over Mpro [1]: preferential inhibition of PLpro over Mpro
Inhibition in L-cysteine buffer versus DTT buffer (dose-response) [2]: increased inhibition
Inhibitory activity on retest in 1 mM L-cysteine [2]: retained their inhibitory activity
inhibition at 20 µM ([2]; read-out: HC PLpro-NAB inhibition [%] 20 μM triplicates 1 mM DTT buffer): 62.8%
inhibition at 20 µM ([2]; read-out: HP PLpro-NAB inhibition [%] 20 μM triplicates 1 mM L-cys buffer): 101%
Potency against PLpro compared with PLpro-NAB [3]: higher potency against PLpro compared with PLpro-NAB

O=C(O)c1cc(O)c2c(c1)[C@H]([C@H]1c3cc(C(=O)O)cc(O)c3C(=O)c3c(O[C@@H]4O[C@H](CO)[C@@H](O)[C@H](O)[C@H]4O)cccc31)c1cccc(O[C@@H]3O[C@H](CO)[C@@H](O)[C@H](O)[C@H]3O)c1C2=O [sennoside A]
Interference inhibition [%] 20 µM based on product interference DTT BUFFER (Table S1, 20 µM, DTT buffer): 1.69%
Inhibition of Mpro [1]: inhibition of both proteases from SARS-CoV-2
Inhibition in L-cysteine buffer versus DTT buffer (dose-response) [2]: lost its inhibitory potency
Inhibitory activity on retest in 1 mM L-cysteine [2]: retained their inhibitory activity

Bacitracin [Bacitracin (Zinc)]
Interference inhibition [%] 20 µM based on product interference DTT BUFFER (Table S1, 20 µM, DTT buffer): -1.67%

Chicago-Sky-Blue-6b
Interference inhibition [%] 20 µM based on product interference DTT BUFFER (Table S1, 20 µM, DTT buffer): -5.59%

Cyanocobalamin
Interference inhibition [%] 20 µM based on product interference DTT BUFFER (Table S1, 20 µM, DTT buffer): 4.81%
HC PLpro-NAB SARS-CoV-2 inhibition [%] 20 µM triplicates DTT BUFFER [2, 6]: 141.27 (3.32) %
HP PLpro-NAB SARS-CoV-2 inhibition [%] 20 µM triplicates L-CYS BUFFER [2, 7]: 32.29 (7.95) %
IC50 [2, 8]: 2.9 µM
IC50 [2, 9]: > 20 µM

Ro-08-2750
Interference inhibition [%] 20 µM based on product interference DTT BUFFER (Table S1, 20 µM, DTT buffer): 0.17%

Ryuvidine
Interference inhibition [%] 20 µM based on product interference DTT BUFFER (Table S1, 20 µM, DTT buffer): -2.15%

SF1670
Interference inhibition [%] 20 µM based on product interference DTT BUFFER (Table S1, 20 µM, DTT buffer): 9.17%

Walrycin B
Interference inhibition [%] 20 µM based on product interference DTT BUFFER (Table S1, 20 µM, DTT buffer, listed as Walrycin B (EOS)): 8.01%
Interference inhibition [%] 20 µM based on product interference DTT BUFFER (Table S1, 20 µM, DTT buffer, listed as Walrycin B (FhG)): 4.84%

Reference: PMC11729419, “Thiol-Reactive or Redox-Active: Revising a Repurposing Screen Led to a New Invalidation Pipeline and Identified a True Noncovalent Inhibitor Against Papain-like Protease from SARS-CoV-2” (ACS Pharmacology & Translational Science, 2024)
